Results from patent publication US12371428B2 (Exelixis, Inc., priority 2019, dated 2025).
pIC50: −log10 of the molar value. Where a name gives a salt, the structure may show the parent alone.

Assays:
[1] = biological target: Human MER (residues 528-999) (Homo sapiens (Human), UniProt Q12866); assay: Human Mer kinase assay, HTRF KinEase (Example C-2); assay type: biochemical; conditions: protocol of Example C-2 (other compounds)
Procedure, shortened: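 HTRF KinEase TK assay with MER 528-999 (1 ng/well) in enzymatic buffer plus 5 mM MgCl2 and 1 mM DTT, biotinylated peptide substrate and ATP at Km (40 μM), 3% DMSO final, 60 min at room temperature. Stopped with EDTA detection mix (SA-XL665, TK antibody-Eu3+), read at 665/620 nm after 60 min; IC50 from 10-point 4-parameter fit, normalized to DMSO and 1 μM reference.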

[2] = biological target: Human KDR (residues 790-1356) (Homo sapiens (Human), UniProt P35968); assay: Human KDR kinase assay, HTRF KinEase (Example B-2); assay type: biochemical; conditions: protocol of Example B-2 (other compounds)
Procedure, shortened: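 Human KDR residues 790-1356 (0.1 ng/well) in buffer with 5 mM MgCl2, 1 mM MnCl2, 1 mM DTT, biotinylated peptide substrate, ATP at Km (4.0 μM), 3% DMSO, 10 compound concentrations; 40 min, room temperature. EDTA stop, streptavidin-XL665/Eu-TK antibody HTRF read 665/620 nm; 4-parameter IC50.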

[3] = biological target: Mer (phospho-Mer, MERTK-transfected 293A cells) (Homo sapiens (Human), UniProt Q12866); assay: Mer autophosphorylation ELISA in transient transfected 293A cells (Example H); assay type: cell-based; conditions: cellular activity; Mer autophosphorylation ELISA in transient transfected 293A cells
Procedure, shortened: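 Human MERTK transiently transfected into 293A cells; compounds as 8-point dose curve in serum-free medium (0.3% DMSO final), 1 h. Lysates assayed by phospho-Mer sandwich ELISA against phospho-Mer standard; DMSO = 100%, reference inhibitor = 0% activity; IC50 from 4-parameter logistic fit.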

[4] = biological target: Met (phospho-Met, HGF-stimulated PC-3 prostate cancer cells) (Homo sapiens (Human), UniProt P08581); assay: Met autophosphorylation ELISA in PC-3 cells (Example F); assay type: cell-based; conditions: cellular activity; Met autophosphorylation ELISA in PC-3 cells; read-out: c-Met IC50
Procedure, shortened: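 IC50 values derive from a 4-parameter logistic fit of phospho-Met (panTyr) sandwich ELISA signals in PC-3 lysates, scaled between DMSO and reference-inhibitor wells. Cells, starved 3 h in serum-free medium, had 1 h compound exposure (8 doses, 0.3% DMSO) before 10 min stimulation with 100 ng/mL HGF.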

Human MER (residues 528-999), sequence (Q12866 528-999): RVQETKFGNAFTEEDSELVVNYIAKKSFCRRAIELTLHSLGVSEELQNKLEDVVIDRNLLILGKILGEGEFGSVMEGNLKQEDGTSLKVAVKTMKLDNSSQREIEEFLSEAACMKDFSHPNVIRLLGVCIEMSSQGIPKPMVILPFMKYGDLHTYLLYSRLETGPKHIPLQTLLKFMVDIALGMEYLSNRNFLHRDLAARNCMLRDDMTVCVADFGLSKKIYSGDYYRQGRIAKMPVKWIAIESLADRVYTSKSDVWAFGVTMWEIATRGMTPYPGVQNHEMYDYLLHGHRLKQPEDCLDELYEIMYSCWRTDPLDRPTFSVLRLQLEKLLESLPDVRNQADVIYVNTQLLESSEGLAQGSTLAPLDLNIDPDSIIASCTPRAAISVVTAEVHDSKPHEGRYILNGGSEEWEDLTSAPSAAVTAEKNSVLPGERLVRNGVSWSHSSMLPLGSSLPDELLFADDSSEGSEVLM
Mer (phospho-Mer, MERTK-transfected 293A cells), sequence (Q12866 21-999): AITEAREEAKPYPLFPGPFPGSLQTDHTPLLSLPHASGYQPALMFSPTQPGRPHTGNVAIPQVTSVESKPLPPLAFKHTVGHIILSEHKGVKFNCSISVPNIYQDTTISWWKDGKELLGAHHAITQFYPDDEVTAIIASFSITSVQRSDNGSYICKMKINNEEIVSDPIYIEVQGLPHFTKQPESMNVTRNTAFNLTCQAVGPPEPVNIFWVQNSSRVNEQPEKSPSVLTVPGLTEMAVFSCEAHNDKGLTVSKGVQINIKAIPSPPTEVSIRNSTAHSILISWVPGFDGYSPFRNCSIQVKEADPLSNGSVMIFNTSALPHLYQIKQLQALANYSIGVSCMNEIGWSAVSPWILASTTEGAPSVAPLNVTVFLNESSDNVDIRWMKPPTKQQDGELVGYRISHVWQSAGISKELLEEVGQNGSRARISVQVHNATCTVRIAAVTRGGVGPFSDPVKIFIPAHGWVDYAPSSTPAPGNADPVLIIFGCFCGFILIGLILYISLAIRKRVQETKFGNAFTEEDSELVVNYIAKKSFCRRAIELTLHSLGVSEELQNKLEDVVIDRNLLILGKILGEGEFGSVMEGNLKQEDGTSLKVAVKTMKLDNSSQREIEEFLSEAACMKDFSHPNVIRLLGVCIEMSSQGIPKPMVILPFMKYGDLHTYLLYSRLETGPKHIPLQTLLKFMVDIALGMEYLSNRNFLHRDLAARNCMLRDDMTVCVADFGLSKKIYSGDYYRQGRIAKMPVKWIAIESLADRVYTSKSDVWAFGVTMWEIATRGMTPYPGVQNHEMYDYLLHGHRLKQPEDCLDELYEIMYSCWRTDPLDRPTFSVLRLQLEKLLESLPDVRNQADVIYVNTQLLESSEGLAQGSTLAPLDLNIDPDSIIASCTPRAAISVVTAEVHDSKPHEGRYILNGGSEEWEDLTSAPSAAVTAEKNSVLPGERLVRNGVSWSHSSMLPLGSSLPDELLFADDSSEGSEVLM
Human KDR (residues 790-1356), sequence (P35968 790-1356): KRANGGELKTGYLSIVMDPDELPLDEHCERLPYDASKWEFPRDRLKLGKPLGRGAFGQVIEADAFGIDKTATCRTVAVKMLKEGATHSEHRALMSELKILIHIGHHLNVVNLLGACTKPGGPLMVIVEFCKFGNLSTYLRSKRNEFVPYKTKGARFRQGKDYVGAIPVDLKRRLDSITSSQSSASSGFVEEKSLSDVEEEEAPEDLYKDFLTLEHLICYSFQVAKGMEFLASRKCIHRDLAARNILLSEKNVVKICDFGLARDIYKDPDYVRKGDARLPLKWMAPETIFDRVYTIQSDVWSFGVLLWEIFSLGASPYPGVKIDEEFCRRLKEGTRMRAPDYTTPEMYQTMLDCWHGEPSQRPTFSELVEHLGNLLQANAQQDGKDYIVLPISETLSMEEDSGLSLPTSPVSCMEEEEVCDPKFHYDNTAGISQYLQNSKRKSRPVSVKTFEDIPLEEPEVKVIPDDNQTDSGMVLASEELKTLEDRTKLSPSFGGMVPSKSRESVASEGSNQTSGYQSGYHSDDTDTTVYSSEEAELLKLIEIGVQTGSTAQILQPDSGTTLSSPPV
Met (phospho-Met, HGF-stimulated PC-3 prostate cancer cells), sequence (P08581 25-1390): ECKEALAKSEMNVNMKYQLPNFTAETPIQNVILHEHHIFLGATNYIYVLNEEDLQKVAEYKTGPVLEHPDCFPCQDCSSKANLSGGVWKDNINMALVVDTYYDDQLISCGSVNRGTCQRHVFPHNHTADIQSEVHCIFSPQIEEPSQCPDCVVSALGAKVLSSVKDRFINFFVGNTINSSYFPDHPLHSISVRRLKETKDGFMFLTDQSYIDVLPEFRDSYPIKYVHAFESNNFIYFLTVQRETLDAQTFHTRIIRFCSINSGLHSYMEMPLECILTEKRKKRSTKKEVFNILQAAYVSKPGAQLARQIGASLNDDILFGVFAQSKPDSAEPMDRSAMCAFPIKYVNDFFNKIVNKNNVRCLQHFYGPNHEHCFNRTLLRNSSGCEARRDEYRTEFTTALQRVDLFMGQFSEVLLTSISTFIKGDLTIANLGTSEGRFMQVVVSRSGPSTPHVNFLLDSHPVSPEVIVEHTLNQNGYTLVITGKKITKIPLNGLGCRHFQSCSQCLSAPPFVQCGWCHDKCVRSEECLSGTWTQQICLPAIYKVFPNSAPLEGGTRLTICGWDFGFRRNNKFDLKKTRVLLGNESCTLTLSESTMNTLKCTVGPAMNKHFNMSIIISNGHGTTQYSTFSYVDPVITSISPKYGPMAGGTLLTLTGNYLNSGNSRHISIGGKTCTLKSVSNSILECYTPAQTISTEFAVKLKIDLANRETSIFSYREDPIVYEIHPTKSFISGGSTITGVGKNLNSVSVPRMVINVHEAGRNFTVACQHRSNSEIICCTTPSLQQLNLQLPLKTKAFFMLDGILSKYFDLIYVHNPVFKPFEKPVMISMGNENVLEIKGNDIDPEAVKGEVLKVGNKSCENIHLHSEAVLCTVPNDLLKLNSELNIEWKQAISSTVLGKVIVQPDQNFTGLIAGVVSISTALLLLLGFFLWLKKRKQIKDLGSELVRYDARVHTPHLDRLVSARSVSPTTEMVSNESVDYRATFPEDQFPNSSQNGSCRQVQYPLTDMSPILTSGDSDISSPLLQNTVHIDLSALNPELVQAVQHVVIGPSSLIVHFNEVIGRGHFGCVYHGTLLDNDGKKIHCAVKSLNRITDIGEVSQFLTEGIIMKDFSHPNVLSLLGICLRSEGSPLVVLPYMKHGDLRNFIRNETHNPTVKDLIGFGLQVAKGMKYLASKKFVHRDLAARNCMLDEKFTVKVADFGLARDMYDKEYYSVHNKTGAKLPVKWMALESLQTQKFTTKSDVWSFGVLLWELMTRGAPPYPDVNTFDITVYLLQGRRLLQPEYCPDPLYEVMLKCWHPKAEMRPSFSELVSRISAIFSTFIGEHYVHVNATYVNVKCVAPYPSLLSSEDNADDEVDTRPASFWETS

SMILES | pIC50 [1] | pIC50 [2] | pIC50 [3] | pIC50 [4]
COc1cnc2c(Oc3ccc(NC(=O)c4nnc(C)c(-c5ccc(F)cc5C)c4O)cc3F)ccnc2c1 (single isomer, unassigned) [Compound 249B, N-[3-Fluoro-4-[(7-methoxy-1,5-naphthyridin-4-yl)oxy]phenyl]-5-(4-fluoro-2-methylphenyl)-4-hydroxy-6-methylpyridazine-3-carboxamide] | > 7.00 | < 6.52 | > 7.00 | > 7.00
COc1cnc2c(Oc3ccc(NC(=O)c4nnc(C)c(-c5ccc(F)cc5C)c4O)cc3F)ccnc2c1 (single isomer, unassigned) [Compound 249C, N-[3-Fluoro-4-[(7-methoxy-1,5-naphthyridin-4-yl)oxy]phenyl]-5-(4-fluoro-2-methylphenyl)-4-hydroxy-6-methylpyridazine-3-carboxamide] | > 7.00 | < 6.52 | > 7.00 | > 7.00
COc1cc2nccc(Oc3ccc(NC(=O)c4cn(C(C)C)c(C)c(-c5cccc(F)c5)c4=O)cc3F)c2nc1OC [Compound 30, N-[4-[(6,7-Dimethoxy-1,5-naphthyridin-4-yl)oxy]-3-fluorophenyl]-5-(3-fluorophenyl)-6-methyl-4-oxo-1-propan-2-ylpyridine-3-carboxamide hydrochloride] | > 7.00 | > 7.00 | > 7.00 | > 7.00
COc1ccc(-c2c(C)n(C(C)C)cc(C(=O)Nc3ccc(Oc4ccnc5cc(OC)c(OC)nc45)c(F)c3)c2=O)cc1 [Compound 31, N-[4-[(6,7-dimethoxy-1,5-naphthyridin-4-yl)oxy]-3-fluorophenyl]-5-(4-methoxyphenyl)-6-methyl-4-oxo-1-propan-2-ylpyridine-3-carboxamide hydrochloride] | > 7.00 | > 7.00 | > 7.00 | 6.52 to 7.00
COc1cc2nccc(Oc3ccc(NC(=O)c4cn(C(C)C)c(C)c(-c5ccc(F)cc5C)c4=O)cc3F)c2nc1OC [Compound 32, N-[4-[(6,7-Dimethoxy-1,5-naphthyridin-4-yl)oxy]-3-fluorophenyl]-5-(4-fluoro-2-methylphenyl)-6-methyl-4-oxo-1-propan-2-ylpyridine-3-carboxamide hydrochloride] | > 7.00 | 6.52 to 7.00 | > 7.00 | > 7.00
COc1cc2nccc(Oc3ccc(NC(=O)c4cn(C)cc(-c5ccccc5)c4=O)cc3F)c2nc1OC [Compound 33, N-[4-[(6,7-Dimethoxy-1,5-naphthyridin-4-yl)oxy]-3-fluorophenyl]-1-methyl-4-oxo-5-phenylpyridine-3-carboxamide hydrochloride] | > 7.00 | > 7.00 | > 7.00 | > 7.00
COc1cc2nccc(Oc3ccc(NC(=O)c4cn(C)cc(-c5cccc(F)c5)c4=O)cc3F)c2nc1OC [Compound 35, N-[4-[(6,7-Dimethoxy-1,5-naphthyridin-4-yl)oxy]-3-fluorophenyl]-5-(3-fluorophenyl)-1-methyl-4-oxopyridine-3-carboxamide hydrochloride] | > 7.00 | > 7.00 | > 7.00 | > 7.00
COc1cc2nccc(Oc3ccc(NC(=O)c4cn(C)c(C)c(-c5ccccc5)c4=O)cc3F)c2nc1OC [Compound 36, N-[4-[(6,7-Dimethoxy-1,5-naphthyridin-4-yl)oxy]-3-fluorophenyl]-1,6-dimethyl-4-oxo-5-phenylpyridine-3-carboxamide hydrochloride] | > 7.00 | > 7.00 | > 7.00 | > 7.00
COc1cc2nccc(Oc3ccc(NC(=O)c4cn(C)c(C)c(-c5cccc(F)c5)c4=O)cc3F)c2nc1OC [Compound 37, N-[4-[(6,7-Dimethoxy-1,5-naphthyridin-4-yl)oxy]-3-fluorophenyl]-5-(3-fluorophenyl)-1,6-dimethyl-4-oxopyridine-3-carboxamide hydrochloride] | > 7.00 | 6.52 to 7.00 | > 7.00 | > 7.00
COc1cnc2c(Oc3ccc(NC(=O)c4cnc(C)c(-c5ccc(F)cc5C)c4O)cc3)ccnc2c1 [Compound 176, 5-(4-Fluoro-2-methylphenyl)-4-hydroxy-N-[4-[(7-methoxy-1,5-naphthyridin-4-yl)oxy]phenyl]-6-methylpyridine-3-carboxamide] | > 7.00 | < 6.52 | > 7.00 | > 7.00
COc1cc2nccc(Oc3ccc(NC(=O)c4c(C)nc(C)c(-c5ccc(F)cc5C)c4O)cc3F)c2nc1OC [Compound 177, N-[4-[(6,7-Dimethoxy-1,5-naphthyridin-4-yl)oxy]-3-fluorophenyl]-5-(4-fluoro-2-methylphenyl)-4-hydroxy-2,6-dimethylpyridine-3-carboxamide] | > 7.00 | > 7.00 | > 7.00 | > 7.00
COc1cnc2c(Oc3ccc(NC(=O)c4c(C)nc(C)c(-c5ccc(F)cc5C)c4O)cc3F)ccnc2c1 [Compound 178, N-[3-Fluoro-4-[(7-methoxy-1,5-naphthyridin-4-yl)oxy]phenyl]-5-(4-fluoro-2-methylphenyl)-4-hydroxy-2,6-dimethylpyridine-3-carboxamide] | > 7.00 | > 7.00 | > 7.00 | > 7.00
CCc1nc(C)c(-c2ccc(F)cc2)c(O)c1C(=O)Nc1ccc(Oc2ccnc3cc(OC)c(OC)nc23)c(F)c1 [Compound 179, N-[4-[(6,7-Dimethoxy-1,5-naphthyridin-4-yl)oxy]-3-fluorophenyl]-2-ethyl-5-(4-fluorophenyl)-4-hydroxy-6-methylpyridine-3-carboxamide] | > 7.00 | > 7.00 | > 7.00 | > 7.00
CCc1nc(C)c(-c2ccc(F)cc2)c(O)c1C(=O)Nc1ccc(Oc2ccnc3cc(OC)cnc23)c(F)c1 [Compound 180, 2-Ethyl-N-[3-fluoro-4-[(7-methoxy-1,5-naphthyridin-4-yl)oxy]phenyl]-5-(4-fluorophenyl)-4-hydroxy-6-methylpyridine-3-carboxamide] | > 7.00 | > 7.00 | > 7.00 | > 7.00
COc1cnc2c(Oc3ccc(NC(=O)c4cn(C)c(C)c(-c5ccc(F)cc5C)c4=O)cc3F)ccnc2c1 [Compound 181, N-[3-Fluoro-4-[(7-methoxy-1,5-naphthyridin-4-yl)oxy]phenyl]-5-(4-fluoro-2-methylphenyl)-1,6-dimethyl-4-oxopyridine-3-carboxamide] | > 7.00 | < 6.52 | > 7.00 | > 7.00
CCc1nc(C)c(-c2ccc(F)cc2)c(O)c1C(=O)Nc1ccc(Oc2ccnc3ccc(OC)nc23)c(F)c1 [Compound 182, 2-Ethyl-N-[3-fluoro-4-[(6-methoxy-1,5-naphthyridin-4-yl)oxy]phenyl]-5-(4-fluorophenyl)-4-hydroxy-6-methylpyridine-3-carboxamide] | > 7.00 | 6.52 to 7.00 | > 7.00 | > 7.00
COc1ccc2nccc(Oc3ccc(NC(=O)c4cn(C)c(C)c(-c5ccc(F)cc5C)c4=O)cc3F)c2n1 [Compound 183, N-[3-Fluoro-4-[(6-methoxy-1,5-naphthyridin-4-yl)oxy]phenyl]-5-(4-fluoro-2-methylphenyl)-1,6-dimethyl-4-oxopyridine-3-carboxamide] | > 7.00 | < 6.52 | > 7.00 | 6.52 to 7.00
COCc1nc(C)c(-c2ccc(F)cc2)c(O)c1C(=O)Nc1ccc(Oc2ccnc3cc(OC)c(OC)nc23)c(F)c1 [Compound 184, N-[4-[(6,7-Dimethoxy-1,5-naphthyridin-4-yl)oxy]-3-fluorophenyl]-5-(4-fluorophenyl)-4-hydroxy-2-(methoxymethyl)-6-methylpyridine-3-carboxamide] | > 7.00 | > 7.00 | > 7.00 | > 7.00
COCc1nc(C)c(-c2ccc(F)cc2)c(O)c1C(=O)Nc1ccc(Oc2ccnc3cc(OC)cnc23)cc1 [Compound 185, 5-(4-Fluorophenyl)-4-hydroxy-2-(methoxymethyl)-N-[4-[(7-methoxy-1,5-naphthyridin-4-yl)oxy]phenyl]-6-methylpyridine-3-carboxamide] | > 7.00 | > 7.00 | > 7.00 | > 7.00
COCc1nc(C)c(-c2ccc(F)cc2)c(O)c1C(=O)Nc1ccc(Oc2ccnc3cc(OC)cnc23)c(F)c1 [Compound 186, N-[3-Fluoro-4-[(7-methoxy-1,5-naphthyridin-4-yl)oxy]phenyl]-5-(4-fluorophenyl)-4-hydroxy-2-(methoxymethyl)-6-methylpyridine-3-carboxamide] | > 7.00 | > 7.00 | > 7.00 | > 7.00
